Source: US10294202B2, “Pyrrolidinones as herbicides” (FMC Corporation, priority 2013, dated 2019)
Like-named read-outs stand apart in the source and are kept apart here.

Legend:
ragweed = experiment: Test C pre-/postemergence herbicide test; format: in vivo, Ambrosia elatior
In short: (§1)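 Visual rating, 0 (no effect) to 100 (complete control), versus untreated controls after 13 to 15 days in the greenhouse. Pre: seeds in loam/sand, sprayed at planting. Post: 1- to 4-leaf plants (2 to 18 cm) in peat-based mix. Compounds in non-phytotoxic solvent plus surfactant.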

pigweed = experiment: Test C pre-/postemergence herbicide test; format: in vivo, Amaranthus retroflexus
In short: as §1

corn = experiment: Test A pre-/postemergence herbicide test; format: in vivo, Zea mays; conditions: Postemergence; for Corn plant response rating (0 to 100 scale, 0 is no effect, 100 is complete control): 500 g ai/ha
In short: (§2)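 Seeds sown in loam soil/sand blend received a preemergence directed soil spray of test chemical in non-phytotoxic solvent with surfactant; postemergence plants (2–10 cm, one- to two-leaf stage) were sprayed with the same formulation. After about 10 days in greenhouse, injury was rated visually versus untreated controls, 0 (no effect) to 100 (complete control).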

lambsquarters = experiment: Test C pre-/postemergence herbicide test; format: in vivo, Chenopodium album
In short: as §1

giant foxtail = experiment: Test A pre-/postemergence herbicide test; format: in vivo, Setaria faberii
In short: as §2

johnsongrass = experiment: Test C pre-/postemergence herbicide test; format: in vivo, Sorghum halepense
In short: as §1

crabgrass, large = experiment: Test C pre-/postemergence herbicide test; format: in vivo, Digitaria sanguinalis
In short: as §1

wheat (winter wheat) = experiment: Test C pre-/postemergence herbicide test; format: in vivo, Triticum aestivum
In short: as §1

oat, wild = experiment: Test C pre-/postemergence herbicide test; format: in vivo, Avena fatua; conditions: Postemergence
In short: as §1

[1] = Postemergence, 31 g ai/ha, scale 0 to 100 (0 no effect, 100 complete control)
[2] = Postemergence, 62 g ai/ha, scale 0 (no effect) to 100 (complete control)
[3] = Postemergence, 125 g ai/ha, scale 0 to 100 (0 no effect, 100 complete control)
[4] = Postemergence, 250 g ai/ha, scale 0 to 100 (0 no effect, 100 complete control)
[5] = Preemergence, 31 g ai/ha, scale 0 to 100, 0 is no effect and 100 is complete control
[6] = Preemergence, 62 g ai/ha, scale 0 to 100 (0 no effect, 100 complete control)
[7] = Preemergence, 125 g ai/ha, scale 0 to 100 (0 no effect, 100 complete control)
[8] = 31 g ai/ha, scale 0 to 100 (0 no effect, 100 complete control)
[9] = 62 g ai/ha, scale 0 (no effect) to 100 (complete control)
[10] = 125 g ai/ha, scale 0 to 100 (0 no effect, 100 complete control)
[11] = 250 g ai/ha, scale 0 to 100 (0 no effect, 100 complete control)

O=C1NC[C@H](c2cccc(C(F)(F)F)c2)[C@H]1C(=O)Nc1ccccc1F [Compound 204, (3R,4S)—N-(2-fluorophenyl)-2-oxo-4-[3-(trifluoromethyl)phenyl]-3-pyrrolidinecarboxamide]
90%: pest or weed control at 125 g/ha (giant foxtail; Setaria faberi, post-emergence, 240 h, Postemergence, 125 g ai/ha, 0 to 100 scale, 0 is no effect, 100 is complete control, read-out: Plant response rating, Foxtail, Giant) | pest or weed control at 125 g/ha (giant foxtail; Setaria faberi, pre-emergence, 240 h, 125 g ai/ha, visual rating, 0 to 100 scale, 0 no effect, 100 complete control, approximately 10 days, read-out: Plant response rating, Foxtail, Giant) | pest or weed control at 500 g/ha (giant foxtail; Setaria faberi, pre-emergence, 240 h, preemergence, 500 g ai/ha, 0 to 100 scale, 0 is no effect and 100 is complete control, read-out: Plant response rating, Foxtail, Giant)
80: Corn plant response rating (0 to 100 scale, 0 is no effect, 100 is complete control) (corn) | Plant response rating, Crabgrass, Large (crabgrass, large; [4]) | Plant response rating, Wheat (wheat (winter wheat); [7])
85: Plant response rating (scale of 0 to 100), Johnsongrass (johnsongrass; Preemergence, 250 g ai/ha)
40: Johnsongrass plant response rating (johnsongrass; [6])
60%: Corn plant response rating (crop injury, 0 = no effect, 100 = complete kill) at 125 g/ha (corn; Zea mays, post-emergence, 240 h, 125 g ai/ha, 0 to 100 scale, 0 is no effect, 100 is complete control)
0: Plant response rating, Ragweed (ragweed; [1]) | Plant response rating, Ragweed (ragweed; [2]) | Plant response rating, Ragweed (ragweed; [3]) | Plant response rating, Ragweed (ragweed; [4]) | Pigweed plant response rating (pigweed; [5]) | Pigweed plant response rating (pigweed; [6]) | Plant response rating, Pigweed (pigweed; [7]) | Plant response rating, Johnsongrass (johnsongrass; [1]) | Plant response rating, Johnsongrass (johnsongrass; [2]) | Plant response rating, Johnsongrass (johnsongrass; [3]) | Plant response rating, Johnsongrass (johnsongrass; [4]) | Plant response rating, Crabgrass, Large (crabgrass, large; [1]) | Plant response rating, Wheat (wheat (winter wheat); [1]) | Plant response rating, Wheat (wheat (winter wheat); [2]) | Plant response rating, Wheat (wheat (winter wheat); [3]) | Plant response rating, Wheat (wheat (winter wheat); [4]) | Wheat plant response rating (wheat (winter wheat); [5]) | Plant response rating, Oat, Wild (oat, wild; [8]) | Plant response rating, Oat, Wild (oat, wild; [9]) | Plant response rating, Oat, Wild (oat, wild; [10])
20: Plant response rating, Pigweed (pigweed; [1])
5: Plant response rating, Oat, Wild (oat, wild; [11])
35: Plant response rating, Lambsquarters (lambsquarters; [1])
50: Plant response rating, Crabgrass, Large (crabgrass, large; [2])
100: Plant response rating, Ragweed (ragweed; [7]) | Lambsquarters plant response rating (lambsquarters; [5]) | Lambsquarters plant response rating (lambsquarters; [6]) | Plant response rating (scale of 0 to 100), Lambsquarters (lambsquarters; Preemergence, 250 g ai/ha) | Plant response rating, Crabgrass, Large (crabgrass, large; [7])
90: Foxtail, Giant plant response rating (0 to 100 scale, 0 is no effect, 100 is complete control) (giant foxtail; Postemergence, 500 g ai/ha) | Crabgrass, Large plant response rating (crabgrass, large; [5]) | Crabgrass, Large plant response rating (crabgrass, large; [6]) | Plant response rating (scale of 0 to 100), Wheat (wheat (winter wheat); Preemergence, 250 g ai/ha)
30: Ragweed plant response rating (ragweed; [5]) | Ragweed plant response rating (ragweed; [6]) | Plant response rating, Lambsquarters (lambsquarters; [4])
10: Plant response rating, Pigweed (pigweed; [2]) | Plant response rating, Pigweed (pigweed; [3]) | Plant response rating, Pigweed (pigweed; [4]) | Johnsongrass plant response rating (johnsongrass; [5])
70: Plant response rating, Crabgrass, Large (crabgrass, large; [3]) | Wheat plant response rating (wheat (winter wheat); [6])
65: Plant response rating (scale of 0 to 100), Ragweed (ragweed; Preemergence, 250 g ai/ha) | Plant response rating, Lambsquarters (lambsquarters; [2])
75: Plant response rating (scale of 0 to 100), Pigweed (pigweed; Preemergence, 250 g ai/ha) | Plant response rating, Lambsquarters (lambsquarters; [3]) | Plant response rating, Lambsquarters (lambsquarters; [7]) | Plant response rating, Johnsongrass (johnsongrass; [7])
95: Plant response rating (scale of 0 to 100), Crabgrass, Large (crabgrass, large; Preemergence, 250 g ai/ha)

O=C1NC[C@H](c2cccc(C(F)(F)F)c2)[C@H]1C(=O)Nc1cccc(F)c1F [Compound 206]
98: Plant response rating (scale of 0 to 100), Ragweed (ragweed; Preemergence, 250 g ai/ha)
85: Plant response rating (scale of 0 to 100), Pigweed (pigweed; Preemergence, 250 g ai/ha) | Plant response rating, Johnsongrass (johnsongrass; [7]) | Plant response rating (scale of 0 to 100), Johnsongrass (johnsongrass; Preemergence, 250 g ai/ha)
90: Plant response rating, Foxtail, Giant (giant foxtail; 125 g ai/ha, visual rating, 0 to 100 scale, 0 no effect, 100 complete control, approximately 10 days, preemergence) | Plant response rating, Foxtail, Giant (giant foxtail; Postemergence, 125 g ai/ha, 0 to 100 scale, 0 is no effect, 100 is complete control) | Foxtail, Giant plant response rating (0 to 100 scale, 0 is no effect, 100 is complete control) (giant foxtail; Postemergence, 500 g ai/ha) | Plant response rating, Foxtail, Giant (giant foxtail; preemergence, 500 g ai/ha, 0 to 100 scale, 0 is no effect and 100 is complete control) | Crabgrass, Large plant response rating (crabgrass, large; [5]) | Crabgrass, Large plant response rating (crabgrass, large; [6])
10: Ragweed plant response rating (ragweed; [6]) | Plant response rating, Lambsquarters (lambsquarters; [3])
40: Plant response rating, Pigweed (pigweed; [2]) | Wheat plant response rating (wheat (winter wheat); [6])
100: Pigweed plant response rating (pigweed; [6]) | Plant response rating, Pigweed (pigweed; [7]) | Lambsquarters plant response rating (lambsquarters; [6]) | Plant response rating, Lambsquarters (lambsquarters; [7]) | Plant response rating (scale of 0 to 100), Lambsquarters (lambsquarters; Preemergence, 250 g ai/ha)
20: Plant response rating, Lambsquarters (lambsquarters; [4])
75: Plant response rating, Lambsquarters (lambsquarters; [2]) | Lambsquarters plant response rating (lambsquarters; [5])
45: Plant response rating, Crabgrass, Large (crabgrass, large; [1]) | Plant response rating, Wheat (wheat (winter wheat); [4]) | Plant response rating, Oat, Wild (oat, wild; [10])
25: Plant response rating, Ragweed (ragweed; [3]) | Johnsongrass plant response rating (johnsongrass; [5])
5: Plant response rating, Ragweed (ragweed; [1]) | Plant response rating, Ragweed (ragweed; [4]) | Plant response rating, Oat, Wild (oat, wild; [9])
30: Plant response rating, Pigweed (pigweed; [1]) | Plant response rating, Pigweed (pigweed; [4]) | Plant response rating, Wheat (wheat (winter wheat); [3])
50: Plant response rating, Pigweed (pigweed; [3]) | Plant response rating, Lambsquarters (lambsquarters; [1]) | Plant response rating, Crabgrass, Large (crabgrass, large; [2]) | Plant response rating, Oat, Wild (oat, wild; [11])
65: Johnsongrass plant response rating (johnsongrass; [6])
60: Plant response rating, Corn (corn; 125 g ai/ha, 0 to 100 scale, 0 is no effect, 100 is complete control)
80: Ragweed plant response rating (ragweed; [5]) | Corn plant response rating (0 to 100 scale, 0 is no effect, 100 is complete control) (corn) | Plant response rating, Crabgrass, Large (crabgrass, large; [4])
95: Plant response rating, Crabgrass, Large (crabgrass, large; [7]) | Plant response rating (scale of 0 to 100), Crabgrass, Large (crabgrass, large; Preemergence, 250 g ai/ha)
0: Plant response rating, Ragweed (ragweed; [2]) | Plant response rating, Johnsongrass (johnsongrass; [1]) | Plant response rating, Johnsongrass (johnsongrass; [2]) | Plant response rating, Johnsongrass (johnsongrass; [3]) | Plant response rating, Wheat (wheat (winter wheat); [1]) | Plant response rating, Wheat (wheat (winter wheat); [2]) | Plant response rating, Oat, Wild (oat, wild; [8])
70: Plant response rating, Ragweed (ragweed; [7]) | Pigweed plant response rating (pigweed; [5]) | Plant response rating, Crabgrass, Large (crabgrass, large; [3]) | Plant response rating, Wheat (wheat (winter wheat); [7]) | Plant response rating (scale of 0 to 100), Wheat (wheat (winter wheat); Preemergence, 250 g ai/ha)
35: Plant response rating, Johnsongrass (johnsongrass; [4]) | Wheat plant response rating (wheat (winter wheat); [5])
